Reference: PubChem BioAssay (NCI)
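Five concentrations, 48 hours, 96-well plates. TGI denotes the concentration required for complete inhibition of growth.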

Tests used:
Experiment in all cases: NCI anticancer screen, dose series, 48 h
SN12C renal = test system: SN12C renal
CCRF-CEM leukemia = test system: CCRF-CEM leukemia
MDA-MB-231 breast = test system: MDA-MB-231 breast
SK-MEL-5 melanoma = test system: SK-MEL-5 melanoma
HT29 colon = test system: HT29 colon
SF-539 CNS = test system: SF-539 CNS
M14 melanoma = test system: M14 melanoma
HCT-116 colon = test system: HCT-116 colon
NCI/ADR-RES ovarian = test system: NCI/ADR-RES ovarian
MDA-MB-435 = test system: MDA-MB-435
MCF7 breast = test system: MCF7 breast
NCI-H226 lung = test system: NCI-H226 lung
KM12 colon = test system: KM12 colon
SR leukemia = test system: SR leukemia
MOLT-4 leukemia = test system: MOLT-4 leukemia

SMILES | TGI (SN12C renal) [µM] | TGI (CCRF-CEM leukemia) [µM] | TGI (MDA-MB-231 breast) [µM] | TGI (SK-MEL-5 melanoma) [µM] | TGI (HT29 colon) [µM] | TGI (SF-539 CNS) [µM] | TGI (M14 melanoma) [µM] | TGI (HCT-116 colon) [µM] | TGI (NCI/ADR-RES ovarian) [µM] | TGI (MDA-MB-435) [µM] | TGI (MCF7 breast) [µM] | TGI (NCI-H226 lung) [µM] | TGI (KM12 colon) [µM] | TGI (SR leukemia) [µM] | TGI (MOLT-4 leukemia) [µM]
COC1/C=C/C(C)C(C(C)C(OC)C(C)CCC(=O)C(C)C(C/C=C/N(C)C=O)OC)OC(=O)C=CC2OC2(C)CC(OC)C(OC)C2=CC(=O)O[C@@H](C(C)C(OC)CC(OC)/C=C/C(C)C(O)C1)[C@H]2O (some centres not stated) | 0.0342 | > 1.24 | 0.0197 | 0.0284 | 0.0108 | 0.00742 | 0.00985 | 0.00596 | 0.263 | > 1.24 | > 0.286 | 0.0164 |  |  | 
Cn1c(=O)c2[nH]c(CCNC(=O)c3ccccc3)nc2n(C)c1=O | > 100 | > 100 | > 100 | > 100 | > 100 |  | > 100 | > 100 | > 100 | > 100 |  | > 100 | > 100 | > 100 | > 100
C=C(Br)CNC(=O)Nc1ccc(Cl)c(Cl)c1 | 82.7 | 45.1 | 32.9 | 27.1 | 73.4 | 39 | 77.5 | 32.7 | 43.6 | 53.2 |  | 67.4 | 34.4 | 62.9 | 73.9
O=S1(=O)OCCOS(=O)(=O)C1(F)Br | > 100 | > 100 |  | > 100 | > 100 | > 100 | > 100 | > 100 | > 100 | > 100 | > 100 | > 100 | > 100 | > 100 | > 100
CCC(C=O)P1(=O)OC(C)(C)CN1C(C)(C)C (configuration not stated) |  |  | > 100 | > 100 | > 100 | > 100 | > 100 | > 100 | > 100 | > 100 | > 100 | > 100 | > 100 | > 100 | 
CCn1c2ccccc2c2ccc3c(c21)C(=O)C=CC3=O | 33.5 | > 100 |  |  | 42.1 | 44 | 14.9 | 15.4 |  |  |  | 32.8 | 27.4 |  | 17.2
C[N+](C)(C)CCc1ccccc1 | > 100 | > 100 |  | > 100 | > 100 | > 100 | > 100 | > 100 |  |  |  | > 100 | > 100 | > 100 | > 100
Cc1n[nH]c(=O)n1N1C(=O)CCCC1=O | > 100 | > 100 | > 100 | > 100 | > 100 | > 100 | > 100 | > 100 | > 100 | > 100 | > 100 | > 100 |  |  | 62.8
Nc1n[n+](CC(=O)c2ccccc2)c2sc(-c3ccccc3)nn12 | > 100 | > 100 | > 100 | > 100 | > 100 | > 100 | > 100 | > 100 | > 100 | > 100 | > 100 | > 100 | > 100 |  | > 100
